Reference: patent US20260226069A1, “GCN2 AND PERK KINASE MODULATORS AND METHODS OF USE THEREOF” (Deciphera Pharmaceuticals, LLC, priority 2023, published 2026)

Assays:
PERK kinase = target: T1, PERK kinase (Homo sapiens, UniProt Q9NZJ5, A704S); experiment: Biochemical assay for PERK (coupled pyruvate kinase/lactate dehydrogenase assay); details: 10 nM PERK, 1 mM ATP, reaction rate 2-3 h time frame, 30° C.
T1 construct: GST (with thrombin site LVPRGS); purchased Beryllium
Experimental: Biochemical Assay for PERK
Activity of PERK kinase was determined spectroscopically using a coupled pyruvate kinase/lactate dehydrogenase assay that continuously monitors the ATP hydrolysis-dependent oxidation of NADH (Science, 2000, 289, 1938-1942). Assays were conducted in 384-well plates (100 μL final volume) using 10 nM PERK (from Beryllium), 0.25 mg/mL Myelin Basic Protein substrate, 1.5 units pyruvate kinase, 2.1 units lactate dehydrogenase, 1 mM phosphoenol pyruvate, 0.28 mM NADH and 1 mM ATP in assay buffer (100 mM Tris, pH 7.5, 15 mM MgCl2, 0.5 mM DTT, 0.004% (w/v) BSA, and 0.004% Triton X-100). Inhibition of PERK was measured by adding serial diluted test compound (final assay concentration of 1% DMSO). A decrease in absorption at 340 nm was monitored continuously for 6 hours at 30° C. on a multi-mode microplate reader (BioTek). The reaction rate was calculated using the 2-3 h time frame. The reaction rate at each concentration of compound was converted to percent inhibition using controls (i.e., reaction with no test compound and reaction with a known inhibitor) and IC50 values were calculated using software routines in Prism (GraphPad software).

[1] = system: ASNase treated CCRF-CEM cells; experiment: CCRF-CEM ASNase cell proliferation assay, phenotypic assay for cellular inhibition of GCN2; type: cell-based; details: Homo sapiens, 1 mU/mL ASNase, 72 h, resazurin
Experimental: CCRF-CEM ASNase Cell Proliferation Assay, a Phenotypic Assay for Cellular Inhibition of GCN2.
CCRF-CEM leukemia cells (catalog #CCL-116) were obtained from the American Type Culture Collect (ATTC, Manassas, VA). Cells were grown in RPMI-1640 medium supplemented with 10% heat-inactivated fetal bovine serum (Invitrogen, Carlsbad, CA) and 1% Penicillin/Streptomycin/L-Glutamine at 37° C., 5% CO2, and 95% humidity. Cells were expanded until reaching one million cells per mL at which time they are subcultured or harvested for assay use. Ten thousand cells per well in 200 μL RPMI-1640 supplemented with 10% heat-inactivated fetal bovine serum and 1% Penicillin/Streptomycin were dispensed into a 96-well black clear bottom plate. A serial dilution of test compound and 1 mU/mL ASNase was added in triplicate and plates were incubated for 72 h at 37° C., 5% CO2, and 95% humidity. At the end of the incubation, 40 μL of a […] solution of resazurin (Sigma, St. Louis, MO) in PBS was added to each well of the plate and plates were incubated for an additional 6 h at 37° C., 5% CO2, and 95% humidity. Plates were read on a Synergy2 or equivalent reader (Biotek, Winooski VT) using an excitation of 540 nm and an emission of 600 nm. Data was analyzed using GraphPad Prism software (GraphPad, San Diego, CA) to calculate IC50 values.

[2] = system: ATF4 in Thapsigargin stimulated CCRF-CEM cells; experiment: CCRF-CEM TG ATF4 ELISA, phenotypic assay for cellular inhibition of PERK preactivated by thapsigargin; type: cell-based; details: Homo sapiens, 3 h, compound three hours then 1 μM thapsigargin for an additional hour
Experimental: CCRF-CEM TG ATF4 ELISA, a Phenotypic Assay for Cellular Inhibition of PERK Preactivated by Thapsigargin (TG)
CCRF-CEM leukemia cells (catalog #CCL-116) were obtained from the American Type Culture Collection (ATTC, Manassas, VA). Briefly, cells were grown in RPMI-1640 medium supplemented with 10% heat-inactivated fetal bovine serum (Invitrogen, Carlsbad, CA) and 1% Penicillin/Streptomycin/L-Glutamine at 37° C., 5% CO2, and 95% humidity. Cells were expanded until reaching one million cells per mL at which time they were subcultured or harvested for assay use. One million five hundred thousand cells per well in 1 mL complete growth medium were dispensed into 12-well plates and incubated overnight. A serial dilution of test compound was added and cells were incubated at 37° C., 5% CO2, and 95% for three hours, then 1 μM thapsigargin was added and cells were incubated for an additional hour at 37° C., 5% CO2, and 95%. Cells were lysed then ATF4 levels were measured using an ELISA assay (Proteintech, Rosemont, IL). Absorbance was measured at 450 nm and 544 nM using a Synergy2 or equivalent reader (Biotek, Winooski VT). Data was analyzed using PRISM software (Graphpad, San Diego, CA) to calculate IC50 values.

[3] = system: ATF4 in H929 Multiple Myeloma cells; experiment: H929 ATF4 ELISA assay; type: cell-based; details: four hours, fold stimulation of cellular ATF4 relative to vehicle treated control
Experimental: H929 multiple myeloma cells (catalog #CRL-9068) were obtained from the American Type Culture Collection (ATTC, Manassas, VA). Briefly, cells were grown in RPMI-1640 medium supplemented with 20% heat-inactivated fetal bovine serum (catalog #A3840002, ThermoFisher Scientific, Waltham, MA), 1% Penicillin/Streptomycin/L-Glutamine (catalog #10378016, ThermoFisher Scientific, Waltham, MA), and 0.05 mM 2-mercaptoethanol (catalog #21985-023, ThermoFisher Scientific, Waltham, MA) at 37° C., 5% CO2, and 95% humidity. Cells were expanded until reaching one million five hundred thousand cells per mL at which time they were sub-cultured or harvested for assay use. One million five hundred thousand cells per well in 1 mL complete growth medium were dispensed into 12-well plates and incubated overnight. A serial dilution of test compound was added, and cells were incubated at 37° C., 5% CO2, and 95% for four hours. Cells were lysed then ATF4 levels were measured using an ELISA assay (Proteintech, Rosemont, IL). Absorbance is measured at 450 nm and 544 nM using a Synergy2 or equivalent reader (Biotek, Winooski VT). Data were analyzed using PRISM software (Graphpad, San Diego, CA) to calculate fold stimulation of cellular ATF4 relative to vehicle treated control.

GCN2 kinase = target: T2, GCN2 kinase (Homo sapiens, UniProt Q9P2K8); experiment: Biochemical assay for GCN2 (TR-FRET kinase activity assay); details: 2 nM GCN2, 1 mM ATP, 3-hour incubation
T2 construct: G556E with a; purchased Carna Biosciences
Experimental: Biochemical assay for GCN2
Activity of GCN2 kinase was determined using a TR-FRET kinase activity assay (e.g., Analytical Biochemistry, 2006, 356, 108-116). Assays were conducted in 384-well plates (13 μL assay volume) using 2 nM GCN2 (Carna Biosciences), 130 nM GFP-EIf2α (Invitrogen), 0.2 mg/mL E. coli tRNA (sigma) and 1 mM ATP in kinase buffer (Invitrogen). Inhibition of GCN2 was measured by adding serial diluted test compound (final assay concentration of 0.5% DMSO) followed by a 3-hour incubation. Tb-peIF2α (pSer52) antibody (Invitrogen) (2 nM final assay concentration) in kinase buffer containing EDTA (final assay concentration of 20 mM) was added. After a 60 min incubation at room temperature, TR-FRET was monitored using an excitation wavelength of 340 nm and emission wavelengths of 490 nm and 520 nm. The emission ratio (520/490) at each compound concentration of was converted to percent inhibition using controls (i.e., reaction with no test compound and reaction with a known inhibitor) and IC50 values were calculated by fitting a four-parameter sigmoidal curve to the data using Prism (GraphPad software).

T1 sequence (Q9NZJ5 with tags, fused parts or gaps A704S): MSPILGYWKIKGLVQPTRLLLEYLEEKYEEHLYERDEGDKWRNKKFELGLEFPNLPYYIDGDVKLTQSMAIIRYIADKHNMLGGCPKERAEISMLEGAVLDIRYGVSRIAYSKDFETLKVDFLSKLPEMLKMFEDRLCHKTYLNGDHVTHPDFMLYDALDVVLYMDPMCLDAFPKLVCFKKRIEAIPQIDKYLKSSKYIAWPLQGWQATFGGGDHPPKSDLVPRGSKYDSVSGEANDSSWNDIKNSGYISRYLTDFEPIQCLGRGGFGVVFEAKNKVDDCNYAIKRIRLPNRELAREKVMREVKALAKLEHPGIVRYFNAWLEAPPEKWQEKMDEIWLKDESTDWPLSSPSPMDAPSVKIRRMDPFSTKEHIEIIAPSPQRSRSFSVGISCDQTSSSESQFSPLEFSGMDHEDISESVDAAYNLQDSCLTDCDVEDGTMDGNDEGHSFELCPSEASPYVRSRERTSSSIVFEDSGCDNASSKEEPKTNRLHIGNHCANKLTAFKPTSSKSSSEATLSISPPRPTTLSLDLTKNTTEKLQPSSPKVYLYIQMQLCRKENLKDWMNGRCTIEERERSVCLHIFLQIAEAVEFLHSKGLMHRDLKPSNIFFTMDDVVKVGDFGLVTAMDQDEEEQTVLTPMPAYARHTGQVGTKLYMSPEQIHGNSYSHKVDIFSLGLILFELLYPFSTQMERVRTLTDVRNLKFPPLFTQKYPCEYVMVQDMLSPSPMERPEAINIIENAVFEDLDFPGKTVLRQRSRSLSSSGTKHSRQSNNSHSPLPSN

SMILES | IC50 (PERK kinase) [nM] | IC50 [1] [nM] | IC50 [2] [nM] | H929 NS ATF4 ELISA [3] | IC50 (GCN2 kinase) [nM]
COc1ncc(Cl)cc1S(=O)(=O)Nc1cc(F)c(F)c(-c2cn(C)c3ncnc(N)c23)c1 [Example 43] | ≤ 100 | 1000 to 10000 | 1000 to 10000 | + (an ATF4 stim less than or equal to 5-fold) | 1000 to 10000
Cn1cc(-c2cccc(NS(=O)(=O)c3cc(Cl)cc(/C=N\O)c3Cl)c2F)c2c(N)ncnc21 [Example 52, (Z)—N-(3-(4-amino-7-methyl-7H-pyrrolo[2,3-d]pyrimidin-5-yl)-2-fluorophenyl)-2,5-dichloro-3-((hydroxyimino)methyl)benzenesulfonamide] | ≤ 100 | 1000 to 10000 | 100 to 500 | ++++ (an ATF4 stim greater than 20-fold) | 500 to 1000
